Patent US20150057447A1, “METHOD OF PRODUCING N-PHENYL-N'-PHENYLSULFONYL PIPERAZINE DERIVATIVE AND INTERMEDIATE THEREOF” (priority 2012, published 2015)

Legend:
Format in all cases: physicochemical
[1] = Evaluation of hygroscopicity by measuring moisture adsorption-desorption isotherm; details: 25° C.; for ratio of mass increase, moisture desorption isotherm: 0% RH; for ratio of mass increase relative to the mass at 0% RH, moisture adsorption isotherm: 95% RH
Excerpt: Moisture adsorption-desorption isotherm is one of means for measuring the adsorption or desorption of moisture. It is a method of measuring the mass change as a function of the relative humidity at constant temperature, and under the conditions where adsorption or desorption is essentially occurring independently of time (equilibrium conditions). Moisture adsorption-desorption isotherm is obtained by plotting relative humidities versus the ratio(%) of the mass increase compared to the mass when the relative humidity of 0%. Accordingly, it is possible to obtain the information about hygroscopicity or dehumidifying nature of the sample.
Moisture adsorption-desorption isotherm of the compounds specified in following (1) to (4) obtained from corresponding examples were measured by the following conditions.
(Operating Method) About 50 mg of the sample was weighted in the mesh stainless-steel sample container, then it was dried at the relative humidity (hereinafter, RH) 0% until the mass change doesn't happen in the device. Temperature and humidity were controlled by the following conditions, and dynamic gravimetric measurement was conducted. Measurement temperature: 25° C. Measurement humidity range: adsorption 0˜95% RH, desorption 95˜0% RH, 5% RH interval Measurement condition: Isotherm condition Herein, isotherm condition means that measurement is move on to next humidity point when the mass change is no longer observed after minimum waiting time or when the equilibrium of mass was not observed until maximum waiting time under constant humidity. The minimum waiting time for equilibrium determination at each humidity: 10 minutes The maximum waiting time for equilibrium determination at each humidity: 2 hours Humidity control: nitrogen and humidification device, 250 mL/minutes (1) Result of the moisture adsorption-desorption isotherm for magnesium bis[5-chloro-2-(1,3-oxazole-2-yl)phenolate] In measuring the moisture adsorption isotherm, in the case of 95% RH, the ratio of mass increase was 2% relative to the mass at 0% RH. In measuring the moisture desorption isotherm, in the case of 0% RH, the ratio of mass increase was 0%. (2) Result of the moisture adsorption-desorption isotherm for calcium bis[5-chloro-2-(1,3-oxazole-2-yl)phenolate] In measuring the moisture adsorption isotherm, in the case of 95% RH, the ratio of mass increase was 3% relative to the mass at 0% RH. In measuring the moisture desorption isotherm, in the case of 0% RH, the ratio of mass increase was 0%.

[2] = Evaluation of sublimation by measuring TG/DTA; details: for sublimation (conclusion from TG/DTA): open system
Description: Evaluation of Sublimation by Measuring TG/DTA
(1) 5-Chloro-2-(1,3-oxazole-2-yl)phenol (I-3, 5 mg) which was obtained from the method described in Patent Document 6 was measured, and an aluminum pan was stuffed with it and measured in the open system. The measurement conditions are as follows.
Device: TG/DTA 7200 by SII nano technology Measurement temperature range: 30° C.-200° C. Heating rate: 10° C./minute Purge gas: N2 200 mL/minute
(2) 5-Chloro-2-(1,3-oxazole-2-yl)phenol (I-3, about 10 mg) which was obtained from the method described in Patent Document 6 was measured, and an aluminum pan was stuffed with it and measured in the open system. The measurement conditions are as follows.
Device: TG/DTA 7200 by SII nano technology Measurement temperature, range: 40° C. Measurement time: 720 minutes Purge gas: N2 200 mL/minute
(3) Magnesium bis[5-chloro-2-(1,3-oxazole-2-yl)phenolate (I-2, 5 m g) which was obtained from Example 1(1) was measured, and an aluminum pan was stuffed with it and measured in the open system. The measurement conditions are as follows.
Device: TG/DTA 7200 by SII nano technology Measurement temperature program: 30° C.-200° C. Rate of temperature increase: 10° C./minute Purge gas: N2 200 mL/minute

[3] = Evaluation of sublimation (heating under reduced pressure, flask with condenser tube)
Description: 5-Chloro-2-(1,3-oxazole-2-yl)phenol (I-3, 3.01 g, 15.4 mmol) which was obtained from the method described in Patent Document 6 was measured in a round-bottomed flask with condenser tube filled with −15° C. cooling liquid, and heated at 40° C. for 6 hours under the reduced pressure (16˜18 mmHg). After 6 hours, 0.02 g of colorless solids were adhered to the condenser tube. The colorless solids were measured by ^1H-NMR (DMSO-d6), it was confirmed to be 5-chloro-2-(1,3-oxazole-2-yl)phenol (I-3).

In the case of “calcium bis[5-chloro-2-(1,3-oxazole-2-yl)phenolate] [Compound I-7]”, the “ratio of mass increase, moisture desorption isotherm” value [1] is reported as 0% and the “ratio of mass increase relative to the mass at 0% RH, moisture adsorption isotherm” value [1] is reported as 3%.

With “magnesium bis[5-chloro-2-(1,3-oxazole-2-yl)phenolate] [Compound I-2]” the “sublimation (conclusion from TG/DTA)” value [2] was “doesn't have sublimation”, the “melting and weight loss (TG/DTA)” value ([2]; about 30° C.-about 180° C., program 30° C.-200° C., 10° C./minute, N2 200 mL/minute) was “not observed” and the “ratio of mass increase, moisture desorption isotherm” value [1] was 0%. For the same compound, the “ratio of mass increase relative to the mass at 0% RH, moisture adsorption isotherm” value [1] was 2%.

In the case of `Oc1cc(Cl)ccc1-c1ncco1` [Compound I-3, 5-chloro-2-(1,3-oxazole-2-yl)phenol], the “weight loss (TG/DTA, constant temperature)” value ([2]; 40° C., 720 minutes, solid state, open aluminum pan, N2 200 mL/minute) is reported as 1.6%, the “sublimation (conclusion from TG/DTA)” value [2] is reported as “has sublimation” and the “weight loss (TG/DTA)” value ([2]; observed at 40-85° C., range 30° C.-200° C., heating rate 10° C./minute, open aluminum pan, N2 200 mL/minute) is reported as 0.38%. The “colorless solids adhered to the condenser tube” value ([3]; 3.01 g heated at 40° C. for 6 hours under reduced pressure (16~18 mmHg), condenser at -15° C.) was 0.02 g and the “sublimation (conclusion from reduced pressure heating test)” value ([3]; 40° C., 6 hours, 16~18 mmHg) was “has sublimation”.
